# Measured values from article PMC10870435, “A novel complement C3 inhibitor CP40-KK protects against experimental pulmonary arterial hypertension via an inflammasome NLRP3 associated pathway” (Journal of Translational Medicine, 2024).
# Bridge positions count the residues as written; N and C are the ends. Square brackets hold non-standard residues; d marks the D form. Peptide text beside a SMILES is read from it. Trp(1-Me) = Cn1cc(C[C@H](N)C(=O)O)c2ccccc21; NMeI = CC[C@H](C)[C@H](NC)C(=O)O; Sar = CNCC(=O)O
# Experiments:
# rat C3 = assay: ELISA, direct binding of plasma C3 to coated peptide; details: peptide coated on ELISA plate, rat plasma dilutions, anti-C3 antibody, OD 450 nm
# Protocol: CP40-KK and its control peptide were dissolved in coating buffer at different concentration and then added to wells of ELISA plate as designed. The coated plate was incubated at 4 °C overnight. Then the plate was incubated with plasma with the indicated dilution at 37 °C for 2 h. Next, the plate was incubated with the C3 antibody (1:2000, MP biomedicals, Irvine, CA, USA) at 37 °C for 2 h. Then the plate was washed for 3 times and incubated with corresponding HRP conjugated secondary antibodies (1:2000, Abcam, Cambridge, UK) at 37° for 1 h. Finally, TMB substrate was added to each well for indicated time at 37 °C and then the stop solution was added to stop the TMB reaction. OD values were measured at 450 nm using a microplate reader (Bio-tek, Vermont, USA). The coating buffer, wash buffer, TMB substrate, and stop solution were all bought from Boster Biological Technology (Wuhan, China).
# CP40-KK and its control peptide were dissolved in coating buffer at different concentrations and then added to wells of ELISA plate as designed. The coated plate was incubated at 4°C overnight. After removing the coating buffer from the wells, the plate was washed using wash buffer 3 times. Then the plate was incubated with plasma with the indicated dilution at 37°C for 2h. […] OD values were measured at 450nm using a microplate reader (Bio-tek, Vermont, USA). […]
# C3 activation (C3a) = assay: Plasma C3a western blot in PAH rats; type: in vivo; details: western blot of rat plasma; n = 6 per group
# Protocol: (§1) In the current study, two animal experiments were conducted successively. 30 rats were randomly divided into two groups (control group and MCT group, n = 15 per group) in the first experiment. MCT group rats received a single intraperitoneally injection of MCT (40 mg/kg) on day 1 to induce PAH while control group rats received an equivoluminal saline injection intraperitoneally. For the second animal experiment, the rats were assigned into four groups (control group, MCT group, CP40-KK group, and MCT + CP40-KK group, n = 15 per group). The control group was given the same volume of saline subcutaneously while the CP40-KK group rats only received CP40-KK (2 mg/kg) by subcutaneous injection from day 15 to day 28 continuously. […]
# […] Protein concentration was quantified using a BCA reagent. […] To compare and quantify levels of proteins, the density of each band was measured using Image J software. Equal loading for total cell or tissue lysates was determined by β-Actin western blot.
# […] Protein concentration was quantified using a BCA reagent. […] To compare and quantify levels of proteins, the density of each band was measured using Image J software. Equal loading for total cell or tissue lysates was determined by β-Actin western blot^3,4.
# [1] = system: rat complement C3 function; assay: CH50 test ex vivo, plasma of PAH experiment groups; type: in vivo; details: 2 mg/kg s.c. day 15 to day 28
# Protocol: as §1, with “group).” for “group). The control group was given the same volume of saline subcutaneously while the CP40-KK group rats only received CP40-KK (2 mg/kg) by subcutaneous injection from day 15 to day 28 continuously.”
# The total functional complement was determined with a CH50 assay based on the modified method of Mayer. […] The OD values of supernatant liquid in the ten tubes were measured at 541 nm and compared with that of the 50% haemolytic standard tube to get the most similar value. The total haemolytic complement (CH50) = dilution ratio / the quantity of plasma needed to induce 50% lysis of sheep erythrocytes.
# Plasma samples for biological assays from rats were centrifuged and stored at -80°C until used, and the total functional complement was determined with a CH50 assay based on the modified method of Mayer. This assay involves determining the quantity of plasma needed to induce 50% lysis of sheep erythrocytes sensitized with antibody anti-sheep erythrocytes. […]
smiles,measurement,setting,value
CC[C@H](C)[C@H](NC(=O)[C@H](N)Cc1ccc(O)cc1)C(=O)N[C@H]1CSSC[C@@H](C(=O)N(C)[C@H](C(=O)N[C@@H](CCCCN)C(=O)N[C@@H](CCCCN)C(N)=O)[C@@H](C)CC)NC(=O)[C@H](CCCNC(=N)N)NC(=O)[C@H](Cc2c[nH]cn2)NC(=O)CN(C)C(=O)[C@H](Cc2c[nH]c3ccccc23)NC(=O)[C@H](CC(=O)O)NC(=O)[C@H](CCC(N)=O)NC(=O)[C@H](Cc2cn(C)c3ccccc23)NC(=O)[C@H](C(C)C)NC1=O [CP40-KK] (H-[dY]ICV[Trp(1-Me)]QDW[Sar]HRC[NMeI]KK-NH2; disulfide 3-12 (inferred)),direct binding of rat C3 and CP40-KK (OD450),rat C3,specific binding
same,plasma C3a (C3 activation ex vivo),C3 activation (C3a),significantly inhibit the C3 activation
same,"CH50 value ex vivo, MCT + CP40-KK vs MCT group",[1],could reverse it
